Activity calls are given as the source filed them. The calls are words filed in the database; no cut-off is given here.
tested on: HeLa; test: Cytotoxicity against human HeLa cells after 48 hrs by Coulter counting analysis; assay type: functional; conditions: read-out: ED50 (the source's name)

Row | SMILES | EC50 [µg/mL]
1 | CCCCCCCC(=O)OC[C@H]1O[C@@H]2[C@@H](Oc3nc(=N)ccn32)[C@@H]1OC(=O)CCCCCCC.Cl | 0.1
2 | CCCCCCCCCCC(=O)OC[C@H]1O[C@@H]2[C@@H](Oc3nc(=N)ccn32)[C@@H]1OC(=O)CCCCCCCCCC.Cl | 0.32
3 | CC(=O)O[C@H]1[C@@H]2Oc3nc(=N)ccn3[C@@H]2O[C@@H]1COC(=O)C12CC3CC(CC(C3)C1)C2.Cl | 0.2
4 | CCCCCCCCCCCCCCCC(=O)OC[C@H]1O[C@@H]2[C@@H](Oc3nc(=N)ccn32)[C@@H]1OC(=O)CCCCCCCCCCCCCCC.Cl | 4

tested on: Vaccinia virus; test: Antiviral activity against Vaccinia virus IHD infected in African green monkey BGM cells after 6 days by plaque reduction assay; assay type: functional; conditions: Orthopoxvirus vaccinia, 144 h, read-out: ED50 (the source's name)

Row | SMILES | EC50 [nM]
5 | CCCCCCCC(=O)OC[C@H]1O[C@@H]2[C@@H](Oc3nc(=N)ccn32)[C@@H]1OC(=O)CCCCCCC.Cl | 560
6 | CCCCCCCCCCC(=O)OC[C@H]1O[C@@H]2[C@@H](Oc3nc(=N)ccn32)[C@@H]1OC(=O)CCCCCCCCCC.Cl | 410
7 | CC(=O)O[C@H]1[C@@H]2Oc3nc(=N)ccn3[C@@H]2O[C@@H]1COC(=O)C12CC3CC(CC(C3)C1)C2.Cl | 640
8 | CCCCCCCCCCCCCCCC(=O)OC[C@H]1O[C@@H]2[C@@H](Oc3nc(=N)ccn32)[C@@H]1OC(=O)CCCCCCCCCCCCCCC.Cl | 28000

tested on: Herpesviridae sp.; test: Antiviral activity against Herpes simplex virus HF infected in African green monkey BGM cells after 6 days by plaque reduction assay; assay type: functional; conditions: 144 h, read-out: ED50 (the source's name)

Row | SMILES | EC50 [nM]
9 | CCCCCCCC(=O)OC[C@H]1O[C@@H]2[C@@H](Oc3nc(=N)ccn32)[C@@H]1OC(=O)CCCCCCC.Cl | 1350
10 | CCCCCCCCCCC(=O)OC[C@H]1O[C@@H]2[C@@H](Oc3nc(=N)ccn32)[C@@H]1OC(=O)CCCCCCCCCC.Cl | 660
11 | CC(=O)O[C@H]1[C@@H]2Oc3nc(=N)ccn3[C@@H]2O[C@@H]1COC(=O)C12CC3CC(CC(C3)C1)C2.Cl | 2100
12 | CCCCCCCCCCCCCCCC(=O)OC[C@H]1O[C@@H]2[C@@H](Oc3nc(=N)ccn32)[C@@H]1OC(=O)CCCCCCCCCCCCCCC.Cl | > 30000

tested on: BGM; test: Antiviral activity against Poliovirus type 1 Mahoney infected in African green monkey BGM cells after 5 days by pulp disk diffusion assay; assay type: functional, cell-based; conditions: Human poliovirus 1 Mahoney

Row | SMILES | Activity
13 | CCCCCCCC(=O)OC[C@H]1O[C@@H]2[C@@H](Oc3nc(=N)ccn32)[C@@H]1OC(=O)CCCCCCC.Cl | inactive
14 | CCCCCCCCCCC(=O)OC[C@H]1O[C@@H]2[C@@H](Oc3nc(=N)ccn32)[C@@H]1OC(=O)CCCCCCCCCC.Cl | inactive
15 | CC(=O)O[C@H]1[C@@H]2Oc3nc(=N)ccn3[C@@H]2O[C@@H]1COC(=O)C12CC3CC(CC(C3)C1)C2.Cl | inactive
16 | CCCCCCCCCCCCCCCC(=O)OC[C@H]1O[C@@H]2[C@@H](Oc3nc(=N)ccn32)[C@@H]1OC(=O)CCCCCCCCCCCCCCC.Cl | inactive

tested on: Measles morbillivirus; test: Antiviral activity against Measles virus infected in African green monkey BGM cells after 5 days by pulp disk diffusion assay; assay type: functional, organism-based; conditions: not given

Row | SMILES | Activity
17 | CCCCCCCC(=O)OC[C@H]1O[C@@H]2[C@@H](Oc3nc(=N)ccn32)[C@@H]1OC(=O)CCCCCCC.Cl | inactive
18 | CCCCCCCCCCC(=O)OC[C@H]1O[C@@H]2[C@@H](Oc3nc(=N)ccn32)[C@@H]1OC(=O)CCCCCCCCCC.Cl | inactive
19 | CC(=O)O[C@H]1[C@@H]2Oc3nc(=N)ccn3[C@@H]2O[C@@H]1COC(=O)C12CC3CC(CC(C3)C1)C2.Cl | inactive
20 | CCCCCCCCCCCCCCCC(=O)OC[C@H]1O[C@@H]2[C@@H](Oc3nc(=N)ccn32)[C@@H]1OC(=O)CCCCCCCCCCCCCCC.Cl | inactive

tested on: unidentified influenza virus; test: Antiviral activity against Influenza virus Ao/WNS infected in monkey LLC-MK2 cells after 5 days by pulp disk diffusion assay; assay type: functional, organism-based; conditions: not given

Row | SMILES | Activity
21 | CCCCCCCC(=O)OC[C@H]1O[C@@H]2[C@@H](Oc3nc(=N)ccn32)[C@@H]1OC(=O)CCCCCCC.Cl | inactive
22 | CCCCCCCCCCC(=O)OC[C@H]1O[C@@H]2[C@@H](Oc3nc(=N)ccn32)[C@@H]1OC(=O)CCCCCCCCCC.Cl | inactive
23 | CC(=O)O[C@H]1[C@@H]2Oc3nc(=N)ccn3[C@@H]2O[C@@H]1COC(=O)C12CC3CC(CC(C3)C1)C2.Cl | inactive
24 | CCCCCCCCCCCCCCCC(=O)OC[C@H]1O[C@@H]2[C@@H](Oc3nc(=N)ccn32)[C@@H]1OC(=O)CCCCCCCCCCCCCCC.Cl | inactive

tested on: L1210; test: Antitumor activity against mouse L1210 cells allografted in BDF1 mouse assessed as increase in life span at 50 mg/kg, ip administered 24 hrs post-implantation measured up to 30 days relative to control; assay type: functional; conditions: route intraperitoneal

Row | SMILES | ILS at 50 mg/kg [%]
25 | CCCCCCCCCCC(=O)OC[C@H]1O[C@@H]2[C@@H](Oc3nc(=N)ccn32)[C@@H]1OC(=O)CCCCCCCCCC.Cl | 88

tested on: L1210; test: Antitumor activity against mouse L1210 cells allografted in BDF1 mouse assessed as increase in life span at 200 mg/kg, ip administered 24 hrs post-implantation measured up to 30 days relative to control; assay type: functional; conditions: route intraperitoneal

Row | SMILES | ILS at 200 mg/kg [%]
26 | CCCCCCCC(=O)OC[C@H]1O[C@@H]2[C@@H](Oc3nc(=N)ccn32)[C@@H]1OC(=O)CCCCCCC.Cl | 28
27 | CCCCCCCCCCC(=O)OC[C@H]1O[C@@H]2[C@@H](Oc3nc(=N)ccn32)[C@@H]1OC(=O)CCCCCCCCCC.Cl | > 179
28 | CCCCCCCCCCCCCCCC(=O)OC[C@H]1O[C@@H]2[C@@H](Oc3nc(=N)ccn32)[C@@H]1OC(=O)CCCCCCCCCCCCCCC.Cl | 231

tested on: L1210; test: Antitumor activity against mouse L1210 cells allografted in BDF1 mouse assessed as increase in life span at 500 mg/kg, ip administered 24 hrs post-implantation measured up to 30 days relative to control; assay type: functional; conditions: route intraperitoneal

Row | SMILES | ILS at 500 mg/kg [%]
29 | CCCCCCCCCCC(=O)OC[C@H]1O[C@@H]2[C@@H](Oc3nc(=N)ccn32)[C@@H]1OC(=O)CCCCCCCCCC.Cl | > 20

tested on: Mus musculus; test: Toxicity in BDF1 mouse allografted with mouse L1210 cells assessed as reduction in average life span at 200 mg/kg, ip administered 24 hrs post-implantation measured up to 30 days relative to control; assay type: organism-based; design: dose 200 mg/kg, route intraperitoneal; scale not given: the % may be the effect or the level left; conditions: in vivo

Row | SMILES | Activity [%]
30 | CC(=O)O[C@H]1[C@@H]2Oc3nc(=N)ccn3[C@@H]2O[C@@H]1COC(=O)C12CC3CC(CC(C3)C1)C2.Cl | 100

tested on: L1210; test: Antitumor activity against mouse L1210 cells allografted in BDF1 mouse assessed as survival at 50 mg/kg, ip administered 24 hrs post-implantation after 30 days; assay type: functional, organism-based; design: dose 50 mg/kg; conditions: not given

Row | SMILES | Activity
31 | CCCCCCCCCCC(=O)OC[C@H]1O[C@@H]2[C@@H](Oc3nc(=N)ccn32)[C@@H]1OC(=O)CCCCCCCCCC.Cl | inactive

tested on: L1210; test: Antitumor activity against mouse L1210 cells allografted in BDF1 mouse assessed as survival at 200 mg/kg, ip administered 24 hrs post-implantation after 30 days; assay type: functional, organism-based; design: dose 200 mg/kg; conditions: not given

Row | SMILES | Activity
32 | CCCCCCCC(=O)OC[C@H]1O[C@@H]2[C@@H](Oc3nc(=N)ccn32)[C@@H]1OC(=O)CCCCCCC.Cl | inactive
33 | CCCCCCCCCCCCCCCC(=O)OC[C@H]1O[C@@H]2[C@@H](Oc3nc(=N)ccn32)[C@@H]1OC(=O)CCCCCCCCCCCCCCC.Cl | inactive

tested on: Mus musculus; test: Toxicity in BDF1 mouse allografted with mouse L1210 cells assessed as survival at 200 mg/kg, ip administered 24 hrs post-implantation after 30 days; assay type: organism-based; design: dose 200 mg/kg, route intraperitoneal; conditions: in vivo, 720 h

Row | SMILES | Activity
34 | CC(=O)O[C@H]1[C@@H]2Oc3nc(=N)ccn3[C@@H]2O[C@@H]1COC(=O)C12CC3CC(CC(C3)C1)C2.Cl | Toxic

tested on: L1210; test: Antitumor activity against mouse L1210 cells allografted in po dosed BDF1 mouse administered 24 hrs post-implantation; assay type: functional, organism-based; conditions: not given

Row | SMILES | Activity
35 | CCCCCCCC(=O)OC[C@H]1O[C@@H]2[C@@H](Oc3nc(=N)ccn32)[C@@H]1OC(=O)CCCCCCC.Cl | inactive
36 | CCCCCCCCCCC(=O)OC[C@H]1O[C@@H]2[C@@H](Oc3nc(=N)ccn32)[C@@H]1OC(=O)CCCCCCCCCC.Cl | inactive
37 | CC(=O)O[C@H]1[C@@H]2Oc3nc(=N)ccn3[C@@H]2O[C@@H]1COC(=O)C12CC3CC(CC(C3)C1)C2.Cl | inactive
38 | CCCCCCCCCCCCCCCC(=O)OC[C@H]1O[C@@H]2[C@@H](Oc3nc(=N)ccn32)[C@@H]1OC(=O)CCCCCCCCCCCCCCC.Cl | inactive

From ChEMBL document CHEMBL3272098, “Reactions of 2-acyloxyisobutyryl halides with nucleosides. 7. Synthesis and biological evaluation of some 2,2'-anhydro-1(3',5'-di-O-acyl-beta-D-arabinofuranosyl)cytosine hydrochlorides” (J Med Chem, 1976)
